Assay results as given in US9340577B2, “HLA binding motifs and peptides and their uses” (priority 1992, dated 2016).
No end group written: not given here.

Assays:
Test in all cases: biochemical
Assay type in all cases: binding
HLA-A1 (A*0101) = HLA-A1 (A*0101) (Homo sapiens, UniProt P04439, A114D/A174V/A182V/D101N/D185E/E176A/E190D/L180R/Q94H/R68K/S129P/T187R/V100A/V91M/W191G)
A*2601 = A*2601 (Homo sapiens, UniProt P04439, A114D/A173T/A270S/D101N/D185E/E277Q/E87N/F33Y/G231S/I121R/I218V/K168Q/L180W/L300P/L318F/P208A/P217A/Q86R/Q94H/R138Q/S129P/T187R/T323A/T345S/V100A/V358M)
A*3002 = A*3002 (Homo sapiens, UniProt P04439, D101N/D140H/D185E/E176R/F33S/G80R/H175R/K168Q/Q94H/R138E/R41S/V100E)
A*2902 = A*2902 (Homo sapiens, UniProt P04439, A270S/D101N/D185E/E176V/E277Q/E87Q/F33T/G231S/H175R/I121M/I218V/I322F/K168Q/L300P/L318F/M331R/P208A/P217A/Q86L/T323A/T345S/V100A/V358M)
HLA-A11 (A*1101) = HLA-A11 (A*1101) (Homo sapiens, UniProt P04439, A114D/D185E/E176A/F33Y/L180Q/S129P/T187R)
A31 (A*3101) = A31 (A*3101) (Homo sapiens, UniProt P04439, A270S/D185E/E176V/E277Q/F33T/G231S/G80R/H175R/I121M/I218V/I322F/K168Q/L300P/L318F/M331R/P217A/Q94H/R138Q/T323A/T345S/T97I/V358M)
A*3301 = A*3301 (Homo sapiens, UniProt P04439, A270S/D185E/E176V/E277Q/E87N/F33T/G231S/H175R/I121M/I218V/I322F/K168Q/K210R/L300P/L318F/M331R/P217A/Q86R/Q94H/R138Q/T323A/T345S/T97I/V358M/Y195H)
A*6801 = A*6801 (Homo sapiens, UniProt P04439, A269V/D185E/E176V/E277Q/E87N/F33Y/G231S/I121M/I166T/I218V/L180W/L300P/L318F/N151K/P208A/P217A/Q86R/R169H/T345S)

Chain of A*3002 (P04439 whole entry, looked up, the tested form may be a part, stated change not applied): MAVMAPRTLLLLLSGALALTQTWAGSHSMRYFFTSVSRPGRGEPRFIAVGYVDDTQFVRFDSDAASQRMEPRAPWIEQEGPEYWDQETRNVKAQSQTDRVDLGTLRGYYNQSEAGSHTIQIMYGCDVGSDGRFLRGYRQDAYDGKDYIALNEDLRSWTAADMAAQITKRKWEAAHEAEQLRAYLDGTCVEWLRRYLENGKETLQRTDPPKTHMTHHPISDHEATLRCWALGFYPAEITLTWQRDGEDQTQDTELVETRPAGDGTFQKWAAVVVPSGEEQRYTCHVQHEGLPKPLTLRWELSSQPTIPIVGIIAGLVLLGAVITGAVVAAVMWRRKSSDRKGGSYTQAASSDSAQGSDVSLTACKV

Molecule	IC50 (HLA-A1 (A*0101)) [nM]	IC50 (A*2601) [nM]	IC50 (A*3002) [nM]	IC50 (A*2902) [nM]	IC50 (HLA-A11 (A*1101)) [nM]	IC50 (A31 (A*3101)) [nM]	IC50 (A*3301) [nM]	IC50 (A*6801) [nM]
GTADQLIHLY [Peptide 9018.0023]	26	68	2					
WFDITNWLWY [Peptide 9015.0161]	986		1660	150				
VWTIVYIEY [Peptide 9015.0089]	6980	> 20000						
HMARELHPEY [Peptide 9015.0176]	618	1570	33					
HTARELHPEY [Peptide 9018.0004]	8	12	9.2					
FSITNWLWY [Peptide 9015.0008]	74		870	37				
IVNRVRQGY [Peptide 1595.07]	19800		6.3	2030				
VTRRANGWFY [Peptide 9018.0011]	25		0.71	905				
CC(C)C[C@H](NC(=O)[C@H](CO)NC(=O)[C@@H](N)CCCNC(=N)N)C(=O)N[C@@H](Cc1ccc(O)cc1)C(=O)N[C@@H](CC(N)=O)C(=O)N[C@H](C(=O)N[C@H](C(=O)N[C@@H](C)C(=O)N[C@H](C(=O)N[C@@H](CC(C)C)C(=O)N[C@@H](Cc1ccc(O)cc1)C(=O)O)[C@@H](C)O)C(C)C)[C@@H](C)O [Peptide 1595.06]	221		1.2	750	148	9270	> 20000	> 20000
VSIEWRKRRY [Peptide 9015.0183]	> 20000		231	> 20000				
VTTIVYIEY [Peptide 9018.0041]	3.6	448	92					
SYEWRLRRY [Peptide 9018.0036]	3700	3220	58					
LTDQLIHMYY [Peptide 9018.0029]	6.3	3210	197					
SSNLQGKLY [Peptide 86.0139]	3030		62	15900				
LFDQLIHLY [Peptide 9018.0027]	83		10	45				
NSNTKATLLY [Peptide 1580.16]			470	299				
SSSKVSQNY [Peptide 9015.0011]			32	1760				
STEWRQRRY [Peptide 9018.0017]	7.1	371	19					
